Reference: patent US8618111B2, “5-alkynyl-pyrimidines” (Boehringer Ingelheim International GmbH, priority 2010, dated 2013)

Legend:
[1] = system: PC3 (human prostate carcinoma cell line) cells; assay: PC3 proliferation test; type: cell-based; details: PC-3, 72 h, 3 days incubation, DNA dye fluorescence
Protocol: The test is based on measurement of cellular DNA content via fluorescent dye binding. Because cellular DNA content is highly regulated, it is closely proportional to cell number. The extent of proliferation is determined by comparing cell counts for samples treated with drugs with untreated controls.
PC3 (human prostate carcinoma cell line) cells are sown in microtitre plates and incubated overnight in culture medium at 37° C. and 5% CO2. The test substances are diluted stepwise and added to the cells such that the total volume is 200 μL/well. Cells to which diluent, but not substance, is added serve as controls.

mTOR = mTOR (Homo sapiens (Human), UniProt P42345); assay: mTOR kinase activity assay (phosphorylation status of mTOR substrate 4E-BP1; TR-FRET); type: biochemical; details: GFP-4E-BP1 substrate, 8 μM ATP
Protocol: mTOR Kinase Activity Assay
(Phosphorylation Status of mTOR Substrate 4E-BP1; TR-FRET)
The mTOR kinase TR-FRET assay utilizes a physiologically relevant protein substrate for mTOR (4E-BP1, labeled with an acceptor fluorophore (Green Fluorescent Protein) and paired with a corresponding Tb-labeled phospho-specific antibody.
The assay itself is divided into two phases: the reaction phase and the detection phase. In the reaction phase, all components required for the kinase reaction are added to the well, including the labeled protein substrate. The reaction is allowed to incubate for 60 minutes. After the reaction, EDTA is added to stop the kinase reaction, and terbium-labeled antibody is added to bind phosphorylated product. Because the terbium chelate is stable at the EDTA concentrations used to stop a kinase assay, the antibody and EDTA can be pre-mixed prior to addition to minimize pipetting steps. Binding of the terbium labeled antibody to the fluorophore-labeled phosphorylated product brings the terbium and GFP into proximity, resulting in an increase in TR-FRET. In the presence of an inhibitor, formation of phosphorylated product is reduced, and the TR-FRET value is decreased.
• GFP-4E-BP1 substrate; Invitrogen order no. PV4759 • Lanthascreen Tb-anti-p4E-BP1 (pThr46) Antibody Kit; Invitrogen order no. PV4758 • FRAP1 (mTOR) kinase; Invitrogen order no.
400 nM GFP-4E-BP1, 8 μM ATP, ˜150 ng/mL mTOR, 50 mM HEPES pH 7.5, 0.01% Polysorbate 20, 1 mM EGTA, 10 mM MnCl2, and variable amounts of test compounds.
Note: Thaw and keep mTOR, the substrate, ATP, and the antibody on ice prior to making working dilutions. Working dilutions of these components can be kept at room temperature for short periods of time the day of use. • 1. Add 2 ml of 5× Assay Buffer to 8 ml water to prepare 10 ml of 1× Assay Buffer, wherein the concentration of 1× Assay Buffer is 50 mM HEPES pH 7.5, 0.01% Polysorbate 20, 1 mM EGTA, and 10 mM MnCl2. • 2. Prepare Antibody/EDTA Solution by first adding 2.75 μl of Tb-anti p4E-BP1 Antibody to 2397 μl of LanthaScreen™ TR-FRET Dilution Buffer. Then, add 100 μl of 0.5 M EDTA. • 3. […] Then, add 1.6 μl of mTOR (0.45 mg/mL). • 4. Prepare ATP Solution by adding 3.2 μl of 10 mM ATP to 1997 μl of 1× Assay Buffer. Serial Dilution of Inhibitors (16 Point Curve)
Inhibitors are serially diluted in DMSO, then diluted to a 4× working concentration with 1× Assay Buffer. • 1. Dispense 40 μl of DMSO to two adjacent columns of a 96 well plate per compound (e.g. columns 1 and 2). • 2. Add 10 μl of inhibitor stock (10 mM) to the first well of the first column (A1) and mix. • 3. Remove 10 μl from A1 and transfer to the adjacent well in the next column (B1) and mix. • 4. Remove 10 μl from B1 and transfer to the next well in the first column (B2) and mix. • 5. […] Remove 4 μl of diluted compounds and add to 96 μl of 1× Assay Buffer in a 96-well plate making 4× compound dilutions. Kinase Reaction • 1. Add 2.5 μl of 4X compound dilutions to a 384-well plate. • 2. […] Preincubate for […] at RT (shaker). • 5. Add 5 μl of ATP Solution to all wells to start reactions. • 6. Shake the assay plate on a plate shaker for 30 seconds. • 7. Incubate the assay plate for one hour at room temperature (20-25° C.). Stop Step and Fluorescence Detection • 1. Add 10 μl of Antibody/EDTA Solution to each well in columns 1-9. • 2. Shake the assay plate on a plate shaker for 30 seconds. • 3. Incubate the assay plate for one hour at room temperature (20-25° C.). • 4. Measure the GFP (FRET) and terbium (reference) emission signals on a fluorescence plate reader (e.g. Perkin Elmer Envision). Data Analysis • 1. Calculate the emission ratio for each sample by dividing the GFP (FRET) signal by the terbium (reference) signal. • 2.

PI3Kalpha = PI3Kalpha (Homo sapiens (Human), UniProt P42336); assay: Inhibition of PI3Kalpha-induced PIP-2 phosphorylation (filter-binding assay); type: biochemical; details: 33P-ATP
Protocol: Inhibition of PI3Kalpha-Induced PIP-2 Phosphorylation
Method Type: Filter-Binding-Assay
Aliquoted in desired amounts and stored at −80° C. Final assay concentration 25 ng/well.

mTOR, sequence (P42345 1360-2549): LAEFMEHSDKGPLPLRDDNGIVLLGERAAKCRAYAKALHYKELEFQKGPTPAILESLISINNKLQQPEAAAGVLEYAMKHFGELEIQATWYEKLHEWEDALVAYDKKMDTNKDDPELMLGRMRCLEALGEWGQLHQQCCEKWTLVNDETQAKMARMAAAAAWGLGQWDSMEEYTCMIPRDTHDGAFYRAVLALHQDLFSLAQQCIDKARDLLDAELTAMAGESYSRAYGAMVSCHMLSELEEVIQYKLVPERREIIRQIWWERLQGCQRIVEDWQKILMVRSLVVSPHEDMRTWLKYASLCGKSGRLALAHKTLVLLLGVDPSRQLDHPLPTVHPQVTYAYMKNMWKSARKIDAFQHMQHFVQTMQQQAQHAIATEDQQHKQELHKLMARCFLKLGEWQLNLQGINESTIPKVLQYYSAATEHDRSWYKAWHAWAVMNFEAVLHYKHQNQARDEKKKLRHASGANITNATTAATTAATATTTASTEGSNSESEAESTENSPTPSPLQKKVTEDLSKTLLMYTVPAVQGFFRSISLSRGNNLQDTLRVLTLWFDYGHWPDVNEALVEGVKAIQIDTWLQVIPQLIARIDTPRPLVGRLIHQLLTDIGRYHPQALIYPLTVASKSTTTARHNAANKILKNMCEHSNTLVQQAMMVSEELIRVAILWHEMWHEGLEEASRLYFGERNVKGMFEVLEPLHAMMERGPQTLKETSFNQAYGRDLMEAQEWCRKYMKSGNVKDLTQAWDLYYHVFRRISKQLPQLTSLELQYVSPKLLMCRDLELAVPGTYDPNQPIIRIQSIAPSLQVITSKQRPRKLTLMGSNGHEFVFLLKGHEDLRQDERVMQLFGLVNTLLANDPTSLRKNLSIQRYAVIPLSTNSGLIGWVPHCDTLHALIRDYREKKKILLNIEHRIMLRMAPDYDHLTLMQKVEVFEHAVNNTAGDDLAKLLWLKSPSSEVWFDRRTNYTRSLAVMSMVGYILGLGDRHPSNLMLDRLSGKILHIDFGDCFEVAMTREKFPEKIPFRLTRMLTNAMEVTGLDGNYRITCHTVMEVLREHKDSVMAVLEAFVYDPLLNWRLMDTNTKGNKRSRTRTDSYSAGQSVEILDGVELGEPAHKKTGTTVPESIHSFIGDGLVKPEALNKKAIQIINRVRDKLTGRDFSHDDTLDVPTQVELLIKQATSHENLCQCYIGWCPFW
PI3Kalpha, sequence (P42336 whole entry, species assumed): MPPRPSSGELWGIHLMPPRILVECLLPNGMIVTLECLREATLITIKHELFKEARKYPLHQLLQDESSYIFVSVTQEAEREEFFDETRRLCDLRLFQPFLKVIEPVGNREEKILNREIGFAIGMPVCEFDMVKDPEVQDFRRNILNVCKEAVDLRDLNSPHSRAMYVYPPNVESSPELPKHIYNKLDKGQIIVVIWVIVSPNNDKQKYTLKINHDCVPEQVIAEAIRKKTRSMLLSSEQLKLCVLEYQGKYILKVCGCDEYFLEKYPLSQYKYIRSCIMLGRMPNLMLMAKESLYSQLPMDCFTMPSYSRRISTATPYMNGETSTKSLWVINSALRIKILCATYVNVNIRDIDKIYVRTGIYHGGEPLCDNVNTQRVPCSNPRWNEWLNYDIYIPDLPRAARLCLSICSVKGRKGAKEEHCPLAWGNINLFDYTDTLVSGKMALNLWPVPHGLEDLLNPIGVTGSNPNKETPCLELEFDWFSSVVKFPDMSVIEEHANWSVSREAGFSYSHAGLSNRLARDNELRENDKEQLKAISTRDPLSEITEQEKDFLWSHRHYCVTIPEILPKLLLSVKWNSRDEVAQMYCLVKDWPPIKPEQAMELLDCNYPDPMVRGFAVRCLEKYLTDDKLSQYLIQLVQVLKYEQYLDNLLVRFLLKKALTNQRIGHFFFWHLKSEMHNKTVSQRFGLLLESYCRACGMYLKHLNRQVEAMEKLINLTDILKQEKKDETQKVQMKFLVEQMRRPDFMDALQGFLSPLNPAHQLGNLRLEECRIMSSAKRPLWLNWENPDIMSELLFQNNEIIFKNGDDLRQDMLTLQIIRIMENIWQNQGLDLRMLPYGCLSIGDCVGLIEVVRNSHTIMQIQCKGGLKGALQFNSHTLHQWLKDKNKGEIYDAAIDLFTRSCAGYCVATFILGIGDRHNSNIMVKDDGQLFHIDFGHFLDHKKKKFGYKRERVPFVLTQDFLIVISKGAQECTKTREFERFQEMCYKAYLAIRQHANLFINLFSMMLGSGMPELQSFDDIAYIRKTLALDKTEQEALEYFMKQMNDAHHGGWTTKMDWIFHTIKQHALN
PI3Kalpha, sequence (P27986 whole entry partner, species assumed): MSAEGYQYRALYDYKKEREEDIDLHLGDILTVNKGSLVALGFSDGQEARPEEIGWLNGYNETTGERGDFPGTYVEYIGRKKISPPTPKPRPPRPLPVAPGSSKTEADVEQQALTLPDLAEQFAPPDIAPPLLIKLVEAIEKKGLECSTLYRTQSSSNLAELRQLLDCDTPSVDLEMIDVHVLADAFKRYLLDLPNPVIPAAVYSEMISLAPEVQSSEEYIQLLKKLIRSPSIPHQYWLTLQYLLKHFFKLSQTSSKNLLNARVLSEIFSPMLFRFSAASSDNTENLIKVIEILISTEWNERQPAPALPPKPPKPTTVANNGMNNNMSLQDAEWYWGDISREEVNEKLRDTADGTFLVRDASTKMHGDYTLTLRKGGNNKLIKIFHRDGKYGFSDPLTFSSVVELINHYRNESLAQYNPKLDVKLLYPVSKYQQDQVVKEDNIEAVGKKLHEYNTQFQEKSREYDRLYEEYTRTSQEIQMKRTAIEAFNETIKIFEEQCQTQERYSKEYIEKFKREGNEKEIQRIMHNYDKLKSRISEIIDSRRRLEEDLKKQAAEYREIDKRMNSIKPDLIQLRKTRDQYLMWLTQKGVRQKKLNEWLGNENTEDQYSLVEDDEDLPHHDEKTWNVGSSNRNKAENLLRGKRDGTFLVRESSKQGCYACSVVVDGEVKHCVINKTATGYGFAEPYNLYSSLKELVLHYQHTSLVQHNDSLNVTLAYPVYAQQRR

Cc1ncnc(N2CCC3(CCN(C)C3=O)CC2)c1C#Cc1ccc(N)nc1 [Example B-75]
EC50 [1]: 0.092 µM | IC50 (mTOR): 0.01 µM | IC50 PI3Ka (PI3Kalpha): 0.048 µM

Cc1ncnc(N2CCC(O)(Cc3ccccc3)CC2)c1C#Cc1ccc(N)nc1 [Example B-28]
EC50 [1]: 0.195 µM | IC50 (mTOR): 0.05 µM | IC50 PI3Ka (PI3Kalpha): 0.07 µM

Cc1ncnc(N2CCC(C)(O)CC2)c1C#Cc1ccc(N)nc1 [Example B-23]
EC50 [1]: 0.019 µM | IC50 (mTOR): 0.007 µM

CCc1ncnc(N2CCc3c(ncnc3N3CCOCC3)C2)c1C#Cc1ccc(N)nc1 [Example H-27]
IC50 (mTOR): 0.139 µM | IC50 PI3Ka (PI3Kalpha): 0.103 µM

Cc1ncnc(N2CCC(CNC(=O)CN(C)C)CC2)c1C#Cc1ccc(N)nc1 [Example F-4]
IC50 (mTOR): 0.457 µM | IC50 PI3Ka (PI3Kalpha): 0.301 µM

CC(=O)NCC1CCN(c2ncnc(C)c2C#Cc2ccc(N)nc2)CC1 [Example F-1]
EC50 [1]: 0.135 µM | IC50 (mTOR): 0.015 µM | IC50 PI3Ka (PI3Kalpha): 0.036 µM

Cc1ncnc(N2CCC(CNC(=O)CC3CCCC3)CC2)c1C#Cc1ccc(N)nc1 [Example F-3]
EC50 [1]: 0.335 µM | IC50 (mTOR): 0.016 µM | IC50 PI3Ka (PI3Kalpha): 0.039 µM

CCc1ncnc(N2CCn3c(COC)nnc3C2)c1C#Cc1ccc(N)nc1 [Example H-8]
IC50 (mTOR): 0.127 µM | IC50 PI3Ka (PI3Kalpha): 0.185 µM

CCc1ncnc(N2CCC(C(C)(C)O)CC2)c1C#Cc1ccc(N)nc1 [Example B-11]
EC50 [1]: 0.06 µM | IC50 (mTOR): 0.007 µM | IC50 PI3Ka (PI3Kalpha): 0.031 µM

CCOC1CCN(c2ncnc(CC)c2C#Cc2ccc(C)nc2)CC1 [Example B-69]
EC50 [1]: 0.783 µM | IC50 (mTOR): 0.168 µM | IC50 PI3Ka (PI3Kalpha): 0.099 µM

CCc1ncnc(N2CCC3(CCN(C)C3=O)CC2)c1C#Cc1ccc(N)nc1 [Example B-77]
EC50 [1]: 0.043 µM | IC50 (mTOR): 0.008 µM | IC50 PI3Ka (PI3Kalpha): 0.067 µM

CCc1ncnc(N2CCC(=O)CC2)c1C#Cc1ccc(N)nc1 [Example B-62]
EC50 [1]: 0.105 µM | IC50 (mTOR): 0.028 µM | IC50 PI3Ka (PI3Kalpha): 0.109 µM

CCc1ncnc(N2CCC(C)(O)CC2)c1C#Cc1ccc(N)nc1 [Example B-47]
EC50 [1]: 0.046 µM | IC50 (mTOR): 0.005 µM | IC50 PI3Ka (PI3Kalpha): 0.036 µM

Cc1ncnc(N2CCn3c(C)cnc3C2)c1C#Cc1ccc(N)nc1 [Example B-76]
EC50 [1]: 0.233 µM | IC50 (mTOR): 0.097 µM | IC50 PI3Ka (PI3Kalpha): 0.06 µM

CCc1ncnc(N2CCNC(=O)CC2)c1C#Cc1ccc(N)nc1 [Example B-54]
EC50 [1]: 0.211 µM | IC50 (mTOR): 0.014 µM | IC50 PI3Ka (PI3Kalpha): 0.133 µM

Cc1ncnc(N2CCC3(CCN(C)CC3)CC2)c1C#Cc1ccc(N)nc1 [Example B-80]
EC50 [1]: 0.161 µM | IC50 (mTOR): 0.025 µM | IC50 PI3Ka (PI3Kalpha): 0.099 µM

Cc1ncnc(N2CCC(CC(C)(C)O)CC2)c1C#Cc1ccc(N)nc1 [Example B-13]
EC50 [1]: 0.051 µM | IC50 (mTOR): 0.018 µM | IC50 PI3Ka (PI3Kalpha): 0.029 µM

COCCNC(=O)CC1CCN(c2ncnc(C)c2C#Cc2ccc(N)nc2)CC1 [Example E-4]
EC50 [1]: 0.3 µM | IC50 (mTOR): 0.144 µM | IC50 PI3Ka (PI3Kalpha): 0.066 µM

CCc1ncnc(N2CCN(C(C)=O)CC2)c1C#Cc1ccc(N)nc1 [Example B-40]
EC50 [1]: 0.187 µM | IC50 (mTOR): 0.032 µM | IC50 PI3Ka (PI3Kalpha): 0.062 µM

CCc1ncnc(N2CCN(C3COC3)CC2)c1C#Cc1ccc(N)nc1 [Example H-26]
IC50 (mTOR): 0.047 µM | IC50 PI3Ka (PI3Kalpha): 0.105 µM

CCc1ncnc(N2CCN(Cc3nc(C)c(C)o3)CC2)c1C#Cc1ccc(N)nc1 [Example H-28]
IC50 (mTOR): 0.258 µM | IC50 PI3Ka (PI3Kalpha): 0.232 µM

CCc1ncnc(N2CCN(CCN3CCOCC3)CC2)c1C#Cc1ccc(N)nc1 [Example H-9]
IC50 (mTOR): 1.57 µM | IC50 PI3Ka (PI3Kalpha): 0.449 µM

CCOC1CCN(c2ncnc(CC)c2C#Cc2ccc(N)nc2)CC1 [Example B-46]
EC50 [1]: 0.072 µM

CCc1ncnc(N2CCN(CCCS(C)(=O)=O)CC2)c1C#Cc1ccc(N)nc1 [Example H-15]
IC50 (mTOR): 0.025 µM | IC50 PI3Ka (PI3Kalpha): 0.108 µM

Cc1ncnc(N2CCC(=O)CC2)c1C#Cc1ccc(N)nc1 [Example B-65]
EC50 [1]: 0.218 µM

Cc1ncnc(N2CCC(CC(=O)NCCN(C)C)CC2)c1C#Cc1ccc(N)nc1 [Example E-8]
IC50 (mTOR): 0.261 µM | IC50 PI3Ka (PI3Kalpha): 0.149 µM

Cc1ncnc(N2CCC(CC(=O)N3CCN(C)CC3)CC2)c1C#Cc1ccc(N)nc1 [Example E-2]
IC50 (mTOR): 0.366 µM | IC50 PI3Ka (PI3Kalpha): 0.096 µM

CCc1ncnc(N2CCN(C(=O)N3CCOCC3)CC2)c1C#Cc1ccc(N)nc1 [Example H-16]
IC50 (mTOR): 0.022 µM | IC50 PI3Ka (PI3Kalpha): 0.116 µM

CCc1ncnc(N2CCc3ccccc3C2)c1C#Cc1ccc(N)nc1 [Example H-17]
IC50 (mTOR): 0.068 µM | IC50 PI3Ka (PI3Kalpha): 0.056 µM

CCc1ncnc(N2CCN(c3ccccc3C(F)(F)F)CC2)c1C#Cc1ccc(N)nc1 [Example H-19]
IC50 (mTOR): 2 µM | IC50 PI3Ka (PI3Kalpha): 1.861 µM

Cc1ncnc(N2CCC(CNC(=O)CC(C)C)CC2)c1C#Cc1ccc(N)nc1 [Example F-7]
IC50 (mTOR): 0.237 µM | IC50 PI3Ka (PI3Kalpha): 0.047 µM

CCc1ncnc(N2CCN(C3CCOCC3)CC2)c1C#Cc1ccc(N)nc1 [Example H-12]
IC50 (mTOR): 0.077 µM | IC50 PI3Ka (PI3Kalpha): 0.141 µM

CCc1ncnc(N2CCc3cc(OC)c(OC)cc3C2)c1C#Cc1ccc(N)nc1 [Example H-18]
IC50 (mTOR): 0.083 µM | IC50 PI3Ka (PI3Kalpha): 0.043 µM

CCc1ncnc(N2CCNC(=O)C2)c1C#Cc1ccc(N)nc1 [Example H-4]
IC50 (mTOR): 0.045 µM | IC50 PI3Ka (PI3Kalpha): 0.058 µM

CCc1ncnc(N2CCNC(=O)C2)c1C#Cc1ccc(N)nc1 [Example H-5]
IC50 (mTOR): 0.091 µM | IC50 PI3Ka (PI3Kalpha): 0.745 µM

CCc1ncnc(N2CCC3(CCCCC3)CC2)c1C#Cc1ccc(N)nc1 [Example H-3]
IC50 (mTOR): 0.333 µM | IC50 PI3Ka (PI3Kalpha): 0.369 µM

Cc1ncnc(N2CCC(CC(=O)N(C)CCN(C)C)CC2)c1C#Cc1ccc(N)nc1 [Example E-3]
IC50 (mTOR): 0.457 µM | IC50 PI3Ka (PI3Kalpha): 2.001 µM

CCc1ncnc(N2CCC(O)(CC)CC2)c1C#Cc1ccc(N)nc1 [Example B-36]
EC50 [1]: 0.02 µM | IC50 (mTOR): 0.005 µM
